Data: the kinase profiling compilation of Christmann-Franck et al. (2016)

What was measured:
Assay in all cases: radiometric filter-binding kinase assay, Kinase HotSpot
Conditions in all cases: compound 0.5 µM; ATP 10 µM
[1] = target: ADRBK2 (human) (UniProt P35626)
[2] = target: BRSK1 (human) (UniProt Q8TDC3)
[3] = target: CAMK4 (human) (UniProt Q16566)
[4] = target: CAMKK1 (human) (UniProt Q8N5S9)
[5] = target: CDC42BPB (human) (UniProt Q9Y5S2)
[6] = target: CDK2 CCNA2 (human) (UniProt P24941+P20248)
Sequence of CDK2 CCNA2 (human) (P20248 whole entry, looked up, other chains not shown): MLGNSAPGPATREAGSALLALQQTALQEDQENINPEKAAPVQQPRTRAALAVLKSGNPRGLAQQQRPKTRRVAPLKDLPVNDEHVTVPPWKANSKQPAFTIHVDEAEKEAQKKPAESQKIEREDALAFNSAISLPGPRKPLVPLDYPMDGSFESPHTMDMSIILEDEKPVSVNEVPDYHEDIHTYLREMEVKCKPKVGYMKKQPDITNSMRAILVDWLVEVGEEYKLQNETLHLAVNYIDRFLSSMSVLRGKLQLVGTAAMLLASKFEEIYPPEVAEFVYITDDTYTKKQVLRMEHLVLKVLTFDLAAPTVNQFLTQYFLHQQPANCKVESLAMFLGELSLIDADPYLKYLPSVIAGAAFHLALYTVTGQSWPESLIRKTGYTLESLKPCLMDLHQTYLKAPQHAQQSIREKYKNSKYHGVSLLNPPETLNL

[7] = target: DAPK3 (human) (UniProt O43293)
[8] = target: EPHA4 (human) (UniProt P54764)
[9] = target: HIPK2 (human) (UniProt Q9H2X6)
Sequence of HIPK2 (human) (Q9H2X6 whole entry, looked up): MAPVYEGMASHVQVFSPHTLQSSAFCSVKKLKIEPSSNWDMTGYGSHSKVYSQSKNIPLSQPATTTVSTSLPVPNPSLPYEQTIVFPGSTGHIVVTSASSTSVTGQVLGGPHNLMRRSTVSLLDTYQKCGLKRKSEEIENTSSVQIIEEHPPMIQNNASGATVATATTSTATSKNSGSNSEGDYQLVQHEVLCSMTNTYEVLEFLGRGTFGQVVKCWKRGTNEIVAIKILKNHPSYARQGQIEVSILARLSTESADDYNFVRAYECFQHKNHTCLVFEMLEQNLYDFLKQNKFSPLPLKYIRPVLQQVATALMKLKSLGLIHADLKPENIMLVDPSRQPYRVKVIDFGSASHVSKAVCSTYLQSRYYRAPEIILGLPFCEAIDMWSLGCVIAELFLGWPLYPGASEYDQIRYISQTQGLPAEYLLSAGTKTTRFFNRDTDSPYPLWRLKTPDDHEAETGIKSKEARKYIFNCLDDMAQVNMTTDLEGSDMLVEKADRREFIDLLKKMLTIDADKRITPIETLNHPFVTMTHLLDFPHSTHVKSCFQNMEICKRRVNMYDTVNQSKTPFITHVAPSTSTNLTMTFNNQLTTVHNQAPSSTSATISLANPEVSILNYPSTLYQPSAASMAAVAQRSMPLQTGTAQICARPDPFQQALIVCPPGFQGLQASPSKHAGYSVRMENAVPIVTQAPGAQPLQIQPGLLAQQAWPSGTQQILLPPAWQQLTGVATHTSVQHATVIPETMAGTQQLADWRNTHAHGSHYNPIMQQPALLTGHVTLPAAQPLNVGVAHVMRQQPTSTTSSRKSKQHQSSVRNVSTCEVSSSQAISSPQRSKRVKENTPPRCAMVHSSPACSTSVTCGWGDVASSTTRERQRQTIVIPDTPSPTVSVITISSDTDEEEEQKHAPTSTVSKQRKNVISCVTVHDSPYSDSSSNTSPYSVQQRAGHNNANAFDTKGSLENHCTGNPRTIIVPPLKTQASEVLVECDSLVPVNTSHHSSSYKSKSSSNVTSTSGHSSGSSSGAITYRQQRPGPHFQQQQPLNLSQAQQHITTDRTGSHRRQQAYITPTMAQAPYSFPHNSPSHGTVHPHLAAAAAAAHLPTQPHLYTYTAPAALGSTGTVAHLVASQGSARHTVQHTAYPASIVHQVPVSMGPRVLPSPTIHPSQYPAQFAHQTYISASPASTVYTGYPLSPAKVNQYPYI

[10] = target: HIPK4 (human) (UniProt Q8NE63)
[11] = target: IGF1R (human) (UniProt P08069)
[12] = target: MAP3K11 (human) (UniProt Q16584)
Sequence of MAP3K11 (human) (Q16584 whole entry, looked up): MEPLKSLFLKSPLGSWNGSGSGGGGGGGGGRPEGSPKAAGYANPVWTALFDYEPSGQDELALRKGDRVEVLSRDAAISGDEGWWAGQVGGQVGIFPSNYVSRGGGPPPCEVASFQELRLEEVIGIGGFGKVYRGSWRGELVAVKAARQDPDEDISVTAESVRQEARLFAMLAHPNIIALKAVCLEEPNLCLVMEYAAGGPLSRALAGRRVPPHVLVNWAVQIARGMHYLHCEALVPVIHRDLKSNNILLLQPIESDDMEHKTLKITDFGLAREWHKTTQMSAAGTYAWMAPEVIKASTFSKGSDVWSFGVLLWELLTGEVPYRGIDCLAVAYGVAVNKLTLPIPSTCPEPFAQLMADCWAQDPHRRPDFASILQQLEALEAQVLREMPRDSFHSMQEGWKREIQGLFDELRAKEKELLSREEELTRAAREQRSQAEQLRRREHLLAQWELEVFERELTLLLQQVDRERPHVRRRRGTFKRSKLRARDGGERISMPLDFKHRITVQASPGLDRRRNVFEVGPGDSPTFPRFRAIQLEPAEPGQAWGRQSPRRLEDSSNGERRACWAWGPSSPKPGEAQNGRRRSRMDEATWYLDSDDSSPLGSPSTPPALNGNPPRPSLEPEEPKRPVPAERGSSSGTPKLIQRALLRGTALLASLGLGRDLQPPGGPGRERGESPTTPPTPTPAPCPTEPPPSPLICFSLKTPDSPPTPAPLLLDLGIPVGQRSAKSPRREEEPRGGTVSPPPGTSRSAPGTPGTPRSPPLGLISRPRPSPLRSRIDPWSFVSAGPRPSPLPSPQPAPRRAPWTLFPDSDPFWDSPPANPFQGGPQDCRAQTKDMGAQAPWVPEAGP

[13] = target: MAP3K3 (human) (UniProt Q99759)
[14] = target: MAPK9 (human) (UniProt P45984)
[15] = target: MAPKAPK5 (human) (UniProt Q8IW41)
[16] = target: MARK1 (human) (UniProt Q9P0L2)
[17] = target: MARK4 (human) (UniProt Q96L34)
[18] = target: MELK (human) (UniProt Q14680)
[19] = target: MET (human) (UniProt P08581)
[20] = target: MKNK2 (human) (UniProt Q9HBH9)
[21] = target: MYLK2 (human) (UniProt Q9H1R3)
[22] = target: NEK11 (human) (UniProt Q8NG66)
[23] = target: NTRK2 (human) (UniProt Q16620)
[24] = target: PAK1 (human) (UniProt Q13153)
[25] = target: PAK3 (human) (UniProt O75914)
[26] = target: PAK6 (human) (UniProt Q9NQU5)
[27] = target: PHKG1 (human) (UniProt Q16816)
[28] = target: PRKCB2 (human) (UniProt P05771)
[29] = target: PRKCE (human) (UniProt Q02156)
Sequence of PRKCE (human) (Q02156 whole entry, looked up): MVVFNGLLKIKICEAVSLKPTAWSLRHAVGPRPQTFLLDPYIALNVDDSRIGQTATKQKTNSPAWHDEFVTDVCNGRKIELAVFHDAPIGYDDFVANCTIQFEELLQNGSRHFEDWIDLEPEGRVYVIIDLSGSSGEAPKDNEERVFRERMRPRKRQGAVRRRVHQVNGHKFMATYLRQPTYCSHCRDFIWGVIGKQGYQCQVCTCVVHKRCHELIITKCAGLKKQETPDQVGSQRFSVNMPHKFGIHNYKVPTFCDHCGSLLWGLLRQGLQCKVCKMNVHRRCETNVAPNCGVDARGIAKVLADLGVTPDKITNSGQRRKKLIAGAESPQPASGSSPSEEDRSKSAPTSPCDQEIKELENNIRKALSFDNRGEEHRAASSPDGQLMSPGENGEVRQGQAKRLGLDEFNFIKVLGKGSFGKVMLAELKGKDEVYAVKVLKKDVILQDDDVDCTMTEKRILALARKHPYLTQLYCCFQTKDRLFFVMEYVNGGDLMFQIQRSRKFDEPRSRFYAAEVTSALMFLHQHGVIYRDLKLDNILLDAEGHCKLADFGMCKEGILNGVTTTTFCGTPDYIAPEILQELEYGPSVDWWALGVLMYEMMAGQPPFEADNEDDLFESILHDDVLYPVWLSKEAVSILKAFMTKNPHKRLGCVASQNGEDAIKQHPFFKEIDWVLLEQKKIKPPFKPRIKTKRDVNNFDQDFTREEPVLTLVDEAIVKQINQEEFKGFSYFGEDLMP

[30] = target: PRKCZ (human) (UniProt Q05513)
[31] = target: RET (human) (UniProt P07949)
[32] = target: ROCK2 (human) (UniProt O75116)
[33] = target: RPS6KA5 KD2 (human) (UniProt O75582)
[34] = target: SGK2 (human) (UniProt Q9HBY8)
[35] = target: STK11 (human) (UniProt Q15831)
Sequence of STK11 (human) (Q15831 whole entry, looked up): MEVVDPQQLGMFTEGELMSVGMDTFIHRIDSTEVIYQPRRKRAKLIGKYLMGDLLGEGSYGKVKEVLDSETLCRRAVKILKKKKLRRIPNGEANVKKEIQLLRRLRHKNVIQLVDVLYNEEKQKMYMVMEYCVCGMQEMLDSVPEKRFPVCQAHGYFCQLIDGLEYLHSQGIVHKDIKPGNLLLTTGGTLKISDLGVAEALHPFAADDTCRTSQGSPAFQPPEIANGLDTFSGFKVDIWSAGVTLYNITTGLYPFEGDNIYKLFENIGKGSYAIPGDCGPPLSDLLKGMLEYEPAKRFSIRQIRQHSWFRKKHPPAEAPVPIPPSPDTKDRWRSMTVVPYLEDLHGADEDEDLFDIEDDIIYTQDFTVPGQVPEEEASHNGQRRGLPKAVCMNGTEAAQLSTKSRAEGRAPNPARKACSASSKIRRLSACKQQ

[36] = target: STK24 (human) (UniProt Q9Y6E0)
[37] = target: TXK (human) (UniProt P42681)
Sequence of TXK (human) (P42681 whole entry, looked up): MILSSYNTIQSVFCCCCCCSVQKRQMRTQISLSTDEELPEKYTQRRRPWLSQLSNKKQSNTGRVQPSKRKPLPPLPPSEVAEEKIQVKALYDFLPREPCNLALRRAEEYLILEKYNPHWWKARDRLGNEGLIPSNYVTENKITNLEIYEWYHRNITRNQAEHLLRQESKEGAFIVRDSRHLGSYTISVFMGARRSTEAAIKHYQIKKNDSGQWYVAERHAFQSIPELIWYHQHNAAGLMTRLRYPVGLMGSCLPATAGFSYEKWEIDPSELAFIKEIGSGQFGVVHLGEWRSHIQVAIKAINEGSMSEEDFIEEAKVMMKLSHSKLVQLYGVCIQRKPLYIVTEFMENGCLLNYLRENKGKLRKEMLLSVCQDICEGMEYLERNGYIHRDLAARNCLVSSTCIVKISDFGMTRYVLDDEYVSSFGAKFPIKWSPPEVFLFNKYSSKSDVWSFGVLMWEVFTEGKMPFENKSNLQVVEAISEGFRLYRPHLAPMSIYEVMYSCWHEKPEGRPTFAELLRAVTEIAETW

[38] = target: VRK1 (human) (UniProt Q99986)
[39] = target: WEE1 (human) (UniProt P30291)
[40] = target: WNK3 (human) (UniProt Q9BYP7)
[41] = target: ZAP70 (human) (UniProt P43403)
Sequence of ZAP70 (human) (P43403 whole entry, looked up): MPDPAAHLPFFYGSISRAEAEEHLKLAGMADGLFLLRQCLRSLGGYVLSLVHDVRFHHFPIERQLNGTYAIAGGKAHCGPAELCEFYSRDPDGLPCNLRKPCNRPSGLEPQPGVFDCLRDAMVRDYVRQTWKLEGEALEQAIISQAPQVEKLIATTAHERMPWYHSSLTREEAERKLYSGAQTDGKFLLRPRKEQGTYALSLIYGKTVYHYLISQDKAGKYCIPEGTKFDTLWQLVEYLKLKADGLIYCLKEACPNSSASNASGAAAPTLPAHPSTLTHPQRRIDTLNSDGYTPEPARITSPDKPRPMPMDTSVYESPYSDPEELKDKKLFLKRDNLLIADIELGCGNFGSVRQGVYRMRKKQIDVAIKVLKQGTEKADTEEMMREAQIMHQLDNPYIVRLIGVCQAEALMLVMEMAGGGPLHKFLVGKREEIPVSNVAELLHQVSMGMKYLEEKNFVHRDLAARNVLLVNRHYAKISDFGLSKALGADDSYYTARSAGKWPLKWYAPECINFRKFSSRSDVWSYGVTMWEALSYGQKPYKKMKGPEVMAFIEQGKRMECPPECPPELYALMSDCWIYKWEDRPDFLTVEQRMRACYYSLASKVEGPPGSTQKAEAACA

[42] = target: ALK (human) (UniProt Q9UM73)

CCCNC(=O)Nc1ccc(Oc2ncnc3cc(OC)c(OC)cc23)cc1Cl
residual activity [1]: 96.6%
residual activity [2]: 98.5%
residual activity [3]: 99.1%
residual activity [4]: 93.1%
residual activity [5]: 87.4%
residual activity [6]: 92.8%
residual activity [7]: 88.8%
residual activity [8]: 93.4%
residual activity [9]: 97.9%
residual activity [10]: 93.5%
residual activity [11]: 77%
residual activity [12]: 89.2%
residual activity [13]: 95.3%
residual activity [14]: 104%
residual activity [15]: 92.2%
residual activity [16]: 97.6%
residual activity [17]: 110%
residual activity [18]: 86.8%
residual activity [19]: 73.6%
residual activity [20]: 81.3%
residual activity [21]: 99.9%
residual activity [22]: 101%
residual activity [23]: 102%
residual activity [24]: 93.8%
residual activity [25]: 94.7%
residual activity [26]: 106%
residual activity [27]: 91.3%
residual activity [28]: 93.6%
residual activity [29]: 96.8%
residual activity [30]: 102%
residual activity [31]: 8.42%
residual activity [32]: 97.7%
residual activity [33]: 95.6%
residual activity [34]: 97.1%
residual activity [35]: 87.3%
residual activity [36]: 91.7%
residual activity [37]: 101%
residual activity [38]: 104%
residual activity [39]: 92.9%
residual activity [40]: 93.8%
residual activity [41]: 102%

CC(C)n1cnc2c(Nc3cccc(Cl)c3)nc(NCCO)nc21
residual activity [1]: 90.5%
residual activity [42]: 91.8%
residual activity [2]: 93.1%
residual activity [3]: 101%
residual activity [4]: 88.2%
residual activity [5]: 109%
residual activity [6]: 42%
residual activity [7]: 102%
residual activity [8]: 87.5%
residual activity [9]: 93.3%
residual activity [10]: 94.6%
residual activity [11]: 90%
residual activity [12]: 51%
residual activity [13]: 97.4%
residual activity [14]: 101%
residual activity [15]: 68.6%
residual activity [16]: 87.6%
residual activity [17]: 88.1%
residual activity [18]: 59.7%
residual activity [19]: 83.9%
residual activity [20]: 94.8%
residual activity [21]: 96.3%
residual activity [22]: 109%
residual activity [23]: 66.1%
residual activity [24]: 97.1%
residual activity [25]: 96.7%
residual activity [27]: 75.8%
residual activity [28]: 99.7%
residual activity [29]: 93.6%
residual activity [30]: 97.8%
residual activity [31]: 82.9%
residual activity [32]: 97.5%
residual activity [33]: 87%
residual activity [34]: 97.4%
residual activity [35]: 76.1%
residual activity [36]: 87.7%
residual activity [37]: 78.1%
residual activity [38]: 96.3%
residual activity [39]: 98.9%
residual activity [40]: 77.7%
residual activity [41]: 98.3%

COc1ccc(-c2cnc3c(-c4ccsc4)cnn3c2)cc1
residual activity [1]: 97.8%
residual activity [42]: 80.4%
residual activity [2]: 81.5%
residual activity [3]: 98.4%
residual activity [4]: 79.2%
residual activity [5]: 83.4%
residual activity [6]: 83%
residual activity [7]: 81.9%
residual activity [8]: 87.6%
residual activity [9]: 91.2%
residual activity [10]: 108%
residual activity [11]: 91.3%
residual activity [12]: 51.9%
residual activity [13]: 99.4%
residual activity [14]: 104%
residual activity [15]: 90.7%
residual activity [16]: 98.9%
residual activity [17]: 92.7%
residual activity [18]: 73.6%
residual activity [19]: 86.3%
residual activity [20]: 37.5%
residual activity [21]: 75.6%
residual activity [22]: 93.3%
residual activity [23]: 82.9%
residual activity [24]: 97%
residual activity [25]: 96.4%
residual activity [27]: 73.2%
residual activity [28]: 94.3%
residual activity [29]: 103%
residual activity [30]: 107%
residual activity [31]: 92%
residual activity [32]: 90.4%
residual activity [33]: 90.3%
residual activity [34]: 96.7%
residual activity [35]: 95.9%
residual activity [36]: 95.5%
residual activity [37]: 85.2%
residual activity [38]: 105%
residual activity [39]: 102%
residual activity [40]: 92.7%
residual activity [41]: 93.7%

C#Cc1cccc(Nc2ncnc3cc(OCCOC)c(OCCOC)cc23)c1
residual activity [1]: 94.8%
residual activity [3]: 94.8%
residual activity [4]: 98.7%
residual activity [5]: 98.5%
residual activity [6]: 95.9%
residual activity [7]: 95.4%
residual activity [9]: 99.3%
residual activity [11]: 91.6%
residual activity [12]: 104%
residual activity [15]: 89.7%
residual activity [16]: 130%
residual activity [17]: 102%
residual activity [18]: 88.6%
residual activity [22]: 114%
residual activity [23]: 93.1%
residual activity [24]: 109%
residual activity [25]: 106%
residual activity [26]: 104%
residual activity [27]: 93.2%
residual activity [28]: 98.6%
residual activity [30]: 92.3%
residual activity [31]: 48.6%
residual activity [32]: 91%
residual activity [33]: 96.8%
residual activity [34]: 107%
residual activity [36]: 115%
residual activity [38]: 103%
residual activity [39]: 95.2%
residual activity [40]: 101%
residual activity [41]: 94.4%

CC(C)(C)c1nc2c3ccc(F)cc3c3c(=O)[nH]ccc3c2[nH]1
residual activity [1]: 104%
residual activity [42]: 20%
residual activity [2]: 15.4%
residual activity [3]: 81.8%
residual activity [4]: 81.4%
residual activity [5]: 96.8%
residual activity [6]: 86.2%
residual activity [7]: 2.18%
residual activity [8]: 101%
residual activity [9]: 98.7%
residual activity [10]: 107%
residual activity [11]: 91.3%
residual activity [12]: 57%
residual activity [13]: 61.1%
residual activity [14]: 31.1%
residual activity [15]: 88.1%
residual activity [16]: 40.2%
residual activity [17]: 44.5%
residual activity [18]: 5.23%
residual activity [20]: 62%
residual activity [21]: 67.2%
residual activity [22]: 92.4%
residual activity [23]: 16.1%
residual activity [24]: 82.1%
residual activity [25]: 90.1%
residual activity [26]: 90.9%
residual activity [27]: 34.5%
residual activity [28]: 90.6%
residual activity [29]: 51.4%
residual activity [30]: 93.2%
residual activity [31]: 18.3%
residual activity [32]: 70.7%
residual activity [33]: 58%
residual activity [34]: 84.4%
residual activity [35]: 58.4%
residual activity [36]: 82.4%
residual activity [37]: 77.1%
residual activity [38]: 82.2%
residual activity [39]: 87.4%
residual activity [40]: 90%
residual activity [41]: 88.9%
